Assays:
Hsp70 = experiment: Flow cytometry of Hsp70 levels in K562 cells; assay type: cell-based; details: single drug, relative to control cells
Excerpt: (§1) Leukemia K562 cell line samples containing approximately 5×10^6 to 1×10^7 cells were exposed to either the anti-cancer drug 17-allylaminogeldanamycin (17-AAG) or one of the deacetylase inhibitors MS-275 or trichostatin A (TSA). Some samples received both 17-AAG and TSA or both 17-AAG and MS-275. Control samples received no drug. Administration of the 17-AAG anti-cancer drug led to functional changes in Hsp90 and increased expression of Hsp70. […] TSA is a deacetylase inhibitor that can affect acetylation of numerous proteins. In this study, the effect of TSA on tubulin acetylation was observed using an antibody that specifically binds to acetylated tubulin.
(§2) After treatment with the various drugs, the cells were resuspended in fixation solution (0.4% paraformaldehyde in PBS), incubated at 37° C. for 5-10 minutes and washed with wash buffer. The fixed cells were then resuspended in permeabilization solution (4% Triton X-100 in wash buffer) and incubated at room temperature for 5 minutes. Cells were incubated for 1 hour at room temperature with antibodies to the various pharmacodynamic markers. Several cell samples were incubated with antibodies to several markers at once. […] Fluorescence associated with the cells was detected and quantified by flow cytometry.

acetylated lysine = experiment: Flow cytometry of acetylated lysine in K562 cells co-stained for activated caspase 3; assay type: cell-based, human; details: K562, 1 μM, 48 hours
Procedure: (§3) K562 chronic myelogenous leukemia cells were incubated with vehicle alone, 1 μM imatinib (the anticancer drug also known as Gleevec), 1 μM MS-275, or both for 48 hours. The cells were then stained for acetylated lysine as described above and co-stained with antibody to activated caspase 3 as an indicator of cells undergoing apoptosis. Dot plots display acetylated lysine on the x-axis and activated caspase 3 on the y-axis. The multiparameter flow cytometric assay is a powerful tool to monitor pharmacodynamic changes induced by anticancer drugs used in monotherapy or combination therapy protocols. HDAC inhibitors have been reported to promote imatinib-mediated apoptosis in Bcr/Abl+ human myeloid leukemia cells, including imatinib-resistant cells. The effect of MS-275 and imatinib were therefore examined, alone and in combination, on apoptosis in the Bcr/Abl+ cell line K562. Because both MS-275 and imatinib have been reported to induce apoptosis associated with caspase 3 activation, an antibody was used that specifically recognizes activated caspase 3 in a flow assay. This caspase 3 flow assay effectively monitors drug-induced apoptosis. When combined detection of acetylated lysine, this flow assay permitted simultaneous monitoring of apoptosis (caspase 3) and acetylated lysine.

acetylated tubulin = experiment: Flow cytometry of acetylated tubulin in K562 cells; assay type: cell-based; details: single drug
Excerpt: as §1, §2

[1] = system: K562 chronic myelogenous leukemia cells; experiment: Flow cytometry of apoptosis (activated caspase 3) in K562 cells; assay type: cell-based, human; details: K562, 1 μM, 48 hours, single drug
Procedure: as §3

For `C=CCNC1=C2C[C@@H](C)C[C@H](OC)[C@H](O)[C@@H](C)/C=C(\C)[C@H](OC(N)=O)[C@@H](OC)/C=C\C=C(/C)C(=O)NC(=CC1=O)C2=O` [17-AAG, 17-allylaminogeldanamycin], which “levels of Hsp70” value (Hsp70) is on record?
The value was “increased levels of Hsp70”.

How did the “cells with strongly upregulated acetylation” value (acetylated lysine) turn out when `Nc1ccccc1NC(=O)c1ccc(CNC(=O)OCc2cccnc2)cc1` [MS-275, N-(2-aminophenyl)-4-[N-(pyridin-3-ylmethoxycarbonyl)aminomethyl]benzamide] was run?
Its value is “over 50%”.

With `CC(/C=C/C(=O)NO)=C\[C@@H](C)C(=O)c1ccc(N(C)C)cc1` [TSA, trichostatin A] as the compound, how does the “levels of acetylated tubulin” value (acetylated tubulin) read?
Its value is “increased levels of acetylated tubulin”.

Which results are given for `Cc1ccc(NC(=O)c2ccc(CN3CCN(C)CC3)cc2)cc1Nc1nccc(-c2cccnc2)n1` [imatinib, 4-[(4-Methyl-1-piperazinyl)methyl]-N-[4-methyl-3-[[4-(3-pyridinyl)-2-yrimidinyl]amino]-phenyl]benzamide methanesulfonate]?
percent of apoptotic cells (activated caspase 3) [1]: increased the percent of apoptotic cells; acetylation of the activated caspase 3 positive cell population (acetylated lysine): lost acetylation
